# Tests used:
# Plasmodium falciparum [1] = test: Antimalarial activity against Plasmodium falciparum K1 assessed as inhibition of [3H]hypoxanthine incorporation preincubated for 48 hrs measured 24 hrs post [3H]hypoxanthine addition by liquid scintillation counting; assay type: functional, organism-based
# Plasmodium falciparum [2] = test: Antimalarial activity against Plasmodium falciparum […] assessed as inhibition of [3H]hypoxanthine incorporation preincubated for 48 hrs measured 24 hrs post [3H]hypoxanthine addition by liquid scintillation counting; assay type: functional, organism-based
IC50 (Plasmodium falciparum [1]) [nM],IC50 (Plasmodium falciparum [2]) [nM],SMILES
6.5,11,CCN(CC)c1ccc2nc3c4ccccc4/c(=N\c4ccncc4)cc-3oc2c1
5,7.5,CCNc1ccc2nc3c4ccccc4/c(=N/c4ccncc4)cc-3oc2c1
17.1,24,Nc1ccc2nc3c4ccccc4/c(=N/c4ccncc4)cc-3oc2c1
5.2,4.2,CN(C)c1ccc2nc3ccc(=[N+](C)C)cc-3sc2c1 [METHYLENE BLUE CATION]

# From ChEMBL document CHEMBL3297698, “Novel synthetic route for antimalarial benzo[a]phenoxazine derivative SSJ-183 and two active metabolites” (Bioorg Med Chem, 2014)
